Source: publication PMC9412104, “Biochemical and Structural Insights on the Poplar Tau Glutathione Transferase GSTU19 and 20 Paralogs Binding Flavonoids” (Frontiers in Molecular Biosciences, 2022)
Like-named read-outs stand apart in the source and are kept apart here.

Experiments:
PtGSTU19Y160A = PtGSTU19Y160A (Populus trichocarpa, UniProt B9HKX9, Y160A); test: GSH-conjugation activity toward model substrates, variant; type: biochemical; conditions: PtGSTU19 Y160A, fixed saturating GSH, mean ± S.D.
Sequence of PtGSTU19Y160A (B9HKX9 2-219 Y160A): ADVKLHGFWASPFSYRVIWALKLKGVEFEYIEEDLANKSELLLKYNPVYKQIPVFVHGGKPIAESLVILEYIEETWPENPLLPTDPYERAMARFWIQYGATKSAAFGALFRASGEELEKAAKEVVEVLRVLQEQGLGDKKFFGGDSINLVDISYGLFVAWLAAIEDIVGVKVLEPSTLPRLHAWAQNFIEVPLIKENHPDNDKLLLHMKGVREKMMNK
Description: (§2) Peroxidase activity toward hydroperoxides was measured using an NADPH coupled spectrophotometric assay ([Pégeot et al., 2014]).
(§3) The measured velocities were corrected by subtracting the rate of the spontaneous nonenzymatic reaction, and three independent experiments were performed at each substrate concentration.

PtGSTU19Y160C = PtGSTU19Y160C (Populus trichocarpa, UniProt B9HKX9, Y160C); test: as above; type: biochemical; conditions: PtGSTU19 Y160C, fixed saturating GSH, mean ± S.D.
Sequence of PtGSTU19Y160C (B9HKX9 2-219 Y160C): as the sequence (B9HKX9 2-219 Y160A) above, with A159C counted along it
Description: as §2, §3

PtGSTU19Y160F = PtGSTU19Y160F (Populus trichocarpa, UniProt B9HKX9, Y160F); test: as above; type: biochemical; conditions: PtGSTU19 Y160F, GSH-conjugation, fixed saturating GSH, mean ± S.D., n = 3
Sequence of PtGSTU19Y160F (B9HKX9 2-219 Y160F): as the sequence (B9HKX9 2-219 Y160A) above, with A159F counted along it
Description: as §2, §3

PtGSTU20C160Y = PtGSTU20C160Y (Populus trichocarpa, UniProt D2X9R3, C160Y); test: as above; type: biochemical; conditions: PtGSTU19 C160Y in Table S4, fixed saturating GSH, mean ± S.D.
Sequence of PtGSTU20C160Y (D2X9R3 2-219 C160Y): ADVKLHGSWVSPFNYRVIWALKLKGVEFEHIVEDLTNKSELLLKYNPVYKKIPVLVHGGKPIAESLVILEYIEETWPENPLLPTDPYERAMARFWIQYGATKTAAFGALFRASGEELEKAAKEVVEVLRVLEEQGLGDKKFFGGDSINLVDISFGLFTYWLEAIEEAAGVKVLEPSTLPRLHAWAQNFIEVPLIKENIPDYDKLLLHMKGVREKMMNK
Description: as §2, §3

PtGSTU19 [1] = target: T1, PtGSTU19 (Populus trichocarpa, UniProt B9HKX9); test: GSH-conjugation activity toward model substrates
T1 sequence (B9HKX9 entry or part of it): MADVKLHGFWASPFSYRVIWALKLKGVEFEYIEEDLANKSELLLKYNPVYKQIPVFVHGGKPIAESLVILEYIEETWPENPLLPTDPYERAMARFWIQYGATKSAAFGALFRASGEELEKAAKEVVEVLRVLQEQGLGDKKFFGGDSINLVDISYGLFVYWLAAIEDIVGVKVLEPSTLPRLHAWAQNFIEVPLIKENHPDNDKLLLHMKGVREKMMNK

PtGSTU20 [2] = target: T2, PtGSTU20 (Populus trichocarpa, UniProt D2X9R3); test: GSH-conjugation activity toward model substrates; conditions: for k cat: 25°C, fixed 1 mM GSH (0.7 mM with HNE), mean ± S.D., n = 3
T2 sequence (D2X9R3 entry or part of it): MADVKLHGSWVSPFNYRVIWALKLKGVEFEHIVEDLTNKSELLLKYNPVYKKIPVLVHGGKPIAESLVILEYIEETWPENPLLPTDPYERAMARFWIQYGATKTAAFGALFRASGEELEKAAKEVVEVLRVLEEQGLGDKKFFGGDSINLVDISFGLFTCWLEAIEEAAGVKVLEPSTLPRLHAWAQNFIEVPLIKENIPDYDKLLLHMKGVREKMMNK

PtGSTU19 [3] = target: T1, PtGSTU19; test: Competition (inhibition) assay of GSH-conjugation with PITC as substrate; type: biochemical; conditions: read-out: K i
Description: (§4) The measured velocities were corrected by subtracting the rate of the spontaneous nonenzymatic reaction, and three independent experiments were performed at each substrate concentration. The kinetic parameters (k cat and apparent K m) and the inhibition constants (K i) were, respectively, obtained by fitting the data to the nonlinear regression Michaelis–Menten model (kinetic assays) and to the mixed inhibition model (inhibition assays) in GraphPad Prism 8 software ([Copeland, 2013]).

PtGSTU20 [4] = target: T2, PtGSTU20; test: as above; type: biochemical; conditions: read-out: K i
Description: as §4

PtGSTU19 [5] = target: T1, PtGSTU19; test: Thermal shift assay (SYPRO orange); type: binding; conditions: for ΔTm at 100 µM: read-out: ΔTd (denaturation temperature difference)
Description: (§1) Assays were performed in a mixture (final volume of 25 µL) containing 30 mM Tris-HCl pH 8.0, 100 µM of chemical compounds (diluted in 8% DMSO) originating from a chemical library (Supplementary Tables S2, S3), 20 µM of PtGSTU19 or 20, and 5X SYPRO orange. […] The denaturation temperature, which corresponds to the temperature at which 50% of the total fluorescence is measured, was determined by the nonlinear regression Boltzmann sigmoidal model in GraphPad Prism 8 software for data obtained in the presence of potential ligands. This temperature was compared with a reference assay in which organic compounds were replaced by an equivalent DMSO concentration.

PtGSTU20 [6] = target: T2, PtGSTU20; test: Thermal shift assay (SYPRO orange); type: binding
Description: as §1

PtGSTU19 [7] = target: T1, PtGSTU19; test: Peroxidase activity, NADPH coupled spectrophotometric assay; type: biochemical; conditions: enzyme concentration increased up to 10 µM
Description: as §2, §4

PtGSTU20 [8] = target: T2, PtGSTU20; test: as above; type: biochemical; conditions: enzyme concentration increased up to 10 µM
Description: as §2, §4

[9] = PtGSTU19, 25°C, fixed 1 mM GSH (0.7 mM with HNE), mean ± S.D., n = 3
[10] = PtGSTU19 20 µM, compound 100 µM, vs DMSO reference, flavonoid set (Table S3, Figure 4)
[11] = PtGSTU20 20 µM, compound 100 µM, vs DMSO reference, flavonoid set (Table S3, Figure 4), read-out: ΔTd (denaturation temperature difference)
[12] = read-out: ΔTd (denaturation temperature difference)
[13] = PtGSTU19 apo form 20 µM, compound 100 µM, vs DMSO reference, first chemical library screen (Table S2, Figure S9)
[14] = PtGSTU20 apo form 20 µM, compound 100 µM, vs DMSO reference, first chemical library screen (Table S2, Figure S9)

Molecule: S=C=NCCc1ccccc1 [PITC, phenethyl-isothiocyanate]
- k cat (PtGSTU19Y160A; n = 3): 2.3 ± 0.03 s⁻¹
- Km (PtGSTU19Y160A; n = 3, read-out: apparent KM): 49.2 ± 2.6 µM
- k cat (PtGSTU19Y160C; n = 3): 3.05 ± 0.05 s⁻¹
- Km (PtGSTU19Y160C; n = 3, read-out: apparent KM): 40.3 ± 3 µM
- k cat (PtGSTU19Y160F): 3.9 ± 0.07 s⁻¹
- Km (PtGSTU19Y160F; read-out: apparent KM): 31.1 ± 2.5 µM
- k cat (PtGSTU20C160Y; n = 3): 2.03 ± 0.08 s⁻¹
- Km (PtGSTU20C160Y; n = 3, read-out: apparent KM): 58.3 ± 9.2 µM
- k cat (PtGSTU19 [1]; [9]): 3.8 ± 0.1 s⁻¹
- Catalytic efficiency (PtGSTU20 [2]): 88900 M⁻¹ s⁻¹
- k cat (PtGSTU20 [2]): 5.1 ± 0.1 s⁻¹

Molecule: CCCC(=O)Oc1ccc([N+](=O)[O-])cc1 [PNP-butyrate, 4-nitrophenyl-butyrate]
- Catalytic efficiency (PtGSTU19 [1]; PtGSTU19): 100 M⁻¹ s⁻¹
- k cat (PtGSTU19 [1]; [9]): 0.040 ± 0.001 s⁻¹
- k cat/K m (PtGSTU19 [1]; [9]): 0.100 ± 0.002 10^3 M^-1s^-1
- Catalytic efficiency (PtGSTU20 [2]): 100 M⁻¹ s⁻¹
- k cat (PtGSTU20 [2]): 0.020 ± 0.001 s⁻¹

Molecule: O=C1C[C@@H](c2ccccc2)Oc2cc(O)cc(O)c21 [Pinocembrin]
- Ki (PtGSTU19 [3]): 152 ± 13.5 µM
- Ki (PtGSTU20 [4]): 61.2 ± 10.5 µM
- ΔTm at 100 µM (PtGSTU19 [5]; [10]): -0.01 ± 0.12 °C
- ΔTm at 100 µM (PtGSTU20 [6]; [11]): 1.68 °C

Molecule: O=c1cc(-c2ccc(O)cc2)oc2cc(O)cc(O)c12 [apigenin]
- ΔTm at 100 µM (PtGSTU20 [6]; [12]): 1.41 °C

Molecule: O=C(/C=C/c1ccc(O)c(O)c1)c1ccc(O)cc1O [butein]
- ΔTm at 100 µM (PtGSTU20 [6]; [11]): 2.32 °C

Molecule: O=C(CCc1ccc(O)cc1)c1c(O)cc(O)cc1O [phloretin]
- ΔTm at 100 µM (PtGSTU20 [6]; [11]): 3.11 °C

Molecule: O=c1c(O)c(-c2ccc(O)c(O)c2)oc2cc(O)cc(O)c12 [quercetin]
- ΔTm at 100 µM (PtGSTU19 [5]): > 4 °C
- ΔTm at 100 µM (PtGSTU20 [6]; [12]): > 4 °C

Molecule: CC(C)(C)OO [t-BOOH, tert-butyl hydroperoxide]
- Peroxidase activity (active on the peroxide) (PtGSTU19 [7]): not
- Peroxidase activity (active on the peroxide) (PtGSTU20 [8]): not

Molecule: COc1c(O)cc(O)c2c(=O)cc(-c3ccccc3)oc12 [wogonin]
- ΔTm at 100 µM (PtGSTU20 [6]; read-out: ΔTd (denaturation temperature difference), PtGSTU20 20 µM, compound 100 µM, vs DMSO reference, flavonoid set (Table S3, Figure 4)): 5.17 °C

Molecule: glutathionyl-phenylacetophenone [GS-PAP]
- Ki (PtGSTU19 [3]; PtGSTU19, GSH-conjugating reaction with PITC as substrate, mixed model inhibition, ND = no inhibition was detected): 2.3 ± 0.8 µM
- Ki (PtGSTU20 [4]; PtGSTU20, GSH-conjugating reaction with PITC as substrate, mixed model inhibition, ND = no inhibition was detected): 5.1 ± 2.1 µM
- ΔTd (denaturation temperature difference) (PtGSTU19 [5]; [10]): 4.99 ± 0.28 °C
- ΔTd (denaturation temperature difference) (PtGSTU19 [5]; [13]): +8.39 °C
- ΔTd (denaturation temperature difference) (PtGSTU20 [6]; PtGSTU20 20 µM, compound 100 µM, vs DMSO reference, flavonoid set (Table S3, Figure 4)): 6.48 ± 0.17 °C
- ΔTd (denaturation temperature difference) (PtGSTU20 [6]; [14]): +9.62 °C

Molecule: oxidized glutathione [GSSG]
- ΔTd (denaturation temperature difference) (PtGSTU19 [5]; [13]): little or no change
- ΔTd (denaturation temperature difference) (PtGSTU20 [6]; [14]): little or no change
